Experimental data as given in ChEMBL document CHEMBL1133363, “Discovery and evaluation of potent, tyrosine-based alpha4beta1 integrin antagonists” (Bioorg Med Chem Lett, 2000).
Square brackets hold non-standard residues; d marks the D form. Peptide text beside a SMILES is read from it. Thz = O=C(O)[C@@H]1CSCN1

Legend:
Integrin alpha-4/beta-1 [1] = molecular target: T1, Integrin alpha-4/beta-1 (Homo sapiens, UniProt P05556+P13612); experiment: Affinity for alpha4-beta1 integrin from HL60 cell lysate; format: cell-based, HL-60
Integrin alpha-4/beta-1 [2] = molecular target: T1, Integrin alpha-4/beta-1; experiment: Inhibition of alpha4-beta1 VCAM binding in Jurkat cell adhesion assay; format: cell-based
[3] = Half life stability of compound was evaluated in rat plasma; format: ADME, organism-based
[4] = molecular target: Intercellular adhesion molecule (ICAM-1), Integrin alpha-L/beta-2 (Homo sapiens, UniProt P05107+P05362+P20701); experiment: Inhibition of alphaL-beta2 mediated cell adhesion; format: protein-complex assay
Integrin alpha-M/beta-2 = Integrin alpha-M/beta-2 (Homo sapiens, UniProt P05107+P11215); experiment: Inhibition of alphaM-beta2 mediated cell adhesion; format: protein-complex assay
Integrin alpha-V/beta-3 = Integrin alpha-V/beta-3 (Homo sapiens, UniProt P05106+P06756); experiment: Inhibition of alphaV-beta3 mediated cell adhesion; format: protein-complex assay
Integrin alpha-4/beta-7 = molecular target: T2, Integrin alpha-4/beta-7 (Homo sapiens, UniProt P13612+P26010); experiment: Inhibition of alpha4-beta7 integrin mediated cell adhesion; format: protein-complex assay
T2 sequence (P13612 whole entry): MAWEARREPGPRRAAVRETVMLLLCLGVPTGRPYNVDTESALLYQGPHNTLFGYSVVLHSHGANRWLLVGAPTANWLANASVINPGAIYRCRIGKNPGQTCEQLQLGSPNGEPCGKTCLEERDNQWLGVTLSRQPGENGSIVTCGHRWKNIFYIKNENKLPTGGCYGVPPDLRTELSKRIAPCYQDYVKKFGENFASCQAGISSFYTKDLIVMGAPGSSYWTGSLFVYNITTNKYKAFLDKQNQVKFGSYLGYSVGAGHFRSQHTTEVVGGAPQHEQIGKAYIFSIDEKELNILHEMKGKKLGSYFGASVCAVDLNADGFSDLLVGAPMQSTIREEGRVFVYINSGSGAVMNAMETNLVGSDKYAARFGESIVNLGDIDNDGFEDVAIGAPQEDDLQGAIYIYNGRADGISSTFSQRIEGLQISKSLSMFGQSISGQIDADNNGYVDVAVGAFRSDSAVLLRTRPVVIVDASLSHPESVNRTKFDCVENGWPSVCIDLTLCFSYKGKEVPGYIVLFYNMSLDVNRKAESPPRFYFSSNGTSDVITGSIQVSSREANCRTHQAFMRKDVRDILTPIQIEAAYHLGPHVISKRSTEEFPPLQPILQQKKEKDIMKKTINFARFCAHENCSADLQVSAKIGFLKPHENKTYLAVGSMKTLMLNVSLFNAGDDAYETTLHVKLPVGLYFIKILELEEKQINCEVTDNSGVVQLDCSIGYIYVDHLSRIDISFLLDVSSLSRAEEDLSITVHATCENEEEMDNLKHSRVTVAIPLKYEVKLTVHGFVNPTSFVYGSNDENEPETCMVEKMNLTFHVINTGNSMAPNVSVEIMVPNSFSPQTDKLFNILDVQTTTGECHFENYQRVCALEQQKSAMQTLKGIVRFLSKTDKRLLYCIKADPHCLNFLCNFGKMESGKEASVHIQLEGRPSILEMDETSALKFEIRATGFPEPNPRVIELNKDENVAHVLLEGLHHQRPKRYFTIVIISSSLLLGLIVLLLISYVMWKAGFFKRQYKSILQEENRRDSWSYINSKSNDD
T2 sequence (P26010 whole entry): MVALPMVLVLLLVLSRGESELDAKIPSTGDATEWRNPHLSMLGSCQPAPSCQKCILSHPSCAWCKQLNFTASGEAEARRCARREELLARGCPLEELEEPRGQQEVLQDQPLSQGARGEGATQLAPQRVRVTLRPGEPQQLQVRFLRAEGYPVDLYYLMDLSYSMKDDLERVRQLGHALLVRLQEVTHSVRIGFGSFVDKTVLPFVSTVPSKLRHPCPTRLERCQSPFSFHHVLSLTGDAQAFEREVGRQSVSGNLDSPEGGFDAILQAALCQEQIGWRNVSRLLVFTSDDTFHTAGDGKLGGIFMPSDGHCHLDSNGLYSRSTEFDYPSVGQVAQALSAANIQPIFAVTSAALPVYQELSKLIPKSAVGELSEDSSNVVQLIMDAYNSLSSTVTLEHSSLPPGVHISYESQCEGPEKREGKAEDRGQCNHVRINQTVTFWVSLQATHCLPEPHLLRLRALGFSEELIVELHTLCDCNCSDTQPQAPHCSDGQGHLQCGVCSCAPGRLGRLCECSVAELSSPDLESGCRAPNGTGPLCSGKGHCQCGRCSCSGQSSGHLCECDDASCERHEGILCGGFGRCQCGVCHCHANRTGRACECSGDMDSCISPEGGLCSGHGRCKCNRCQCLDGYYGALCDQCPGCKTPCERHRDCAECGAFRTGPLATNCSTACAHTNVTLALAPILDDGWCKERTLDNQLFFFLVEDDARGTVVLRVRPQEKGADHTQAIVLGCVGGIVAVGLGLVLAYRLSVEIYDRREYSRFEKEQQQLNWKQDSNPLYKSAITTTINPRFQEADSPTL

Integrin alpha-5/beta-1 = Integrin alpha-5/beta-1 (Homo sapiens, UniProt P05556+P08648); experiment: Inhibition of alpha5-beta1 integrin mediated cell adhesion; format: protein-complex assay
[5] = molecular target: Integrin alpha-IIb/beta-3 (Homo sapiens, UniProt P05106+P08514); experiment: The antagonist activity was evaluated by alphaIlb-beta3 cell assay; format: functional
Integrin alpha-IIb/beta-3, sequence (P05106 27-788 limits assumed): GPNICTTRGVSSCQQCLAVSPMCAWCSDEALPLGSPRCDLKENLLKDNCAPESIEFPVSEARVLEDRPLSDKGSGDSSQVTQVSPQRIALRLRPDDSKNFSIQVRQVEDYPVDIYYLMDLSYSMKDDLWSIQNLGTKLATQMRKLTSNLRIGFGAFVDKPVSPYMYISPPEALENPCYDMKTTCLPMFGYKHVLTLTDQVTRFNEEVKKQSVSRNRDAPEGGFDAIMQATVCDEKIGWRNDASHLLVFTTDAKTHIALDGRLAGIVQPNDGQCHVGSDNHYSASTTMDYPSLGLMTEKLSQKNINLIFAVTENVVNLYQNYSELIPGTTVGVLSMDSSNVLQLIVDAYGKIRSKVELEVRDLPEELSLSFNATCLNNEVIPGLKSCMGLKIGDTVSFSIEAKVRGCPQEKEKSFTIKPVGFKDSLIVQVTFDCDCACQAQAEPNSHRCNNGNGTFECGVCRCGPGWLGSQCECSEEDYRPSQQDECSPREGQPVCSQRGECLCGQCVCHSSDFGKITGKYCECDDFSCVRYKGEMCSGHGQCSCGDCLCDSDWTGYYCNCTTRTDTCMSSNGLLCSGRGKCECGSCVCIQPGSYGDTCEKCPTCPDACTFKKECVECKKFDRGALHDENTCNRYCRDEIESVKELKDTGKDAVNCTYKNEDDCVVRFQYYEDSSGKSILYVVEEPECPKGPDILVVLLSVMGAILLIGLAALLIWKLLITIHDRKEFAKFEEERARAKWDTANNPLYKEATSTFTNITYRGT
Integrin alpha-IIb/beta-3, sequence (P08514 32-887 limits assumed): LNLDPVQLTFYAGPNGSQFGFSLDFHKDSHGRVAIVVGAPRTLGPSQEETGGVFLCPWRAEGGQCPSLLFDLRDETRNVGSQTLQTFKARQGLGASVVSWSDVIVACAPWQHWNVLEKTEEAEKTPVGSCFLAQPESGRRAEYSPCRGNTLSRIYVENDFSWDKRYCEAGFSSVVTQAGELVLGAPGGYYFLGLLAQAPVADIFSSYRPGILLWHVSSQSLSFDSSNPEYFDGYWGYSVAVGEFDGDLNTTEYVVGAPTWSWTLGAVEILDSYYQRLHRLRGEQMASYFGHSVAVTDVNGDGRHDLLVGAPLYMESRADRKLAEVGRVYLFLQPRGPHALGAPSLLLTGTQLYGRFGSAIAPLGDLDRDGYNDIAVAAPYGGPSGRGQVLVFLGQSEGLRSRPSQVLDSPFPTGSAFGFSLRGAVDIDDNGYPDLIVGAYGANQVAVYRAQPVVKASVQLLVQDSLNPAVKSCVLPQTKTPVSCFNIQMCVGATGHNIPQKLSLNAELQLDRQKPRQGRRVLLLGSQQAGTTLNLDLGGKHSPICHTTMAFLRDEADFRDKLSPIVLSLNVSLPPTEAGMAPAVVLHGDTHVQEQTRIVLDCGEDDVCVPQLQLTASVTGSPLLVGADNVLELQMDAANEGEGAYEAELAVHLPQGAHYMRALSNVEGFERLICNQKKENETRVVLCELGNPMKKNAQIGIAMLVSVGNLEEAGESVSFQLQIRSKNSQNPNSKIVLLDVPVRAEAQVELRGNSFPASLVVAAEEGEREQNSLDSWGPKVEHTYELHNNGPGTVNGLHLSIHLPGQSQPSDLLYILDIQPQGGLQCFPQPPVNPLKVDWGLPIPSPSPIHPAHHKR
Integrin alpha-IIb/beta-3, sequence (P08514 891-1039 limits assumed): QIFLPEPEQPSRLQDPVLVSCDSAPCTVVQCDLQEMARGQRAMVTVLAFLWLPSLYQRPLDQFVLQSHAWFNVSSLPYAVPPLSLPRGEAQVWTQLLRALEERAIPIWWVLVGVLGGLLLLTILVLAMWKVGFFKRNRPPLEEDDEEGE

T1 sequence (P05556 whole entry, one chain of several): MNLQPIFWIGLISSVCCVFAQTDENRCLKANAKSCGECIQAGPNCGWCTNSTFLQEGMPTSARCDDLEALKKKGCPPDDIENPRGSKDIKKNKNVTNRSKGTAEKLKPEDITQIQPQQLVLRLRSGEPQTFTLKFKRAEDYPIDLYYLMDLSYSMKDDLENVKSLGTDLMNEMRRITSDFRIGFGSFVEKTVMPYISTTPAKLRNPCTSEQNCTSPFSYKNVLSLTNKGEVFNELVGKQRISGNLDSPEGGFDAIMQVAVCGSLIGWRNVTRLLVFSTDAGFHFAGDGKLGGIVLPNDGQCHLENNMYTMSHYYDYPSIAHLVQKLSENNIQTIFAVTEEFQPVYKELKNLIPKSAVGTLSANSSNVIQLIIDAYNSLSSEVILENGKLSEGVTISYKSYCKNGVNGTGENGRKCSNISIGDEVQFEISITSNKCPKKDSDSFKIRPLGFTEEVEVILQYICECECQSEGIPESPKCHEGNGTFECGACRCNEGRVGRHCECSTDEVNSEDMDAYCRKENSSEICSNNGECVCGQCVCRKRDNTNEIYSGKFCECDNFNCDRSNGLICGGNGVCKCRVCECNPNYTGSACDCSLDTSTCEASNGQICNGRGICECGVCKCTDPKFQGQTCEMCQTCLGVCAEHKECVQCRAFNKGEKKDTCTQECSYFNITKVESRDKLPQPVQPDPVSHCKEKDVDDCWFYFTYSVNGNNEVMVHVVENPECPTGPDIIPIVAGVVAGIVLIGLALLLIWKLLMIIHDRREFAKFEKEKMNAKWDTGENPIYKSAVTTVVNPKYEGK
Integrin alpha-5/beta-1, sequence (P05556 21-798 limits assumed): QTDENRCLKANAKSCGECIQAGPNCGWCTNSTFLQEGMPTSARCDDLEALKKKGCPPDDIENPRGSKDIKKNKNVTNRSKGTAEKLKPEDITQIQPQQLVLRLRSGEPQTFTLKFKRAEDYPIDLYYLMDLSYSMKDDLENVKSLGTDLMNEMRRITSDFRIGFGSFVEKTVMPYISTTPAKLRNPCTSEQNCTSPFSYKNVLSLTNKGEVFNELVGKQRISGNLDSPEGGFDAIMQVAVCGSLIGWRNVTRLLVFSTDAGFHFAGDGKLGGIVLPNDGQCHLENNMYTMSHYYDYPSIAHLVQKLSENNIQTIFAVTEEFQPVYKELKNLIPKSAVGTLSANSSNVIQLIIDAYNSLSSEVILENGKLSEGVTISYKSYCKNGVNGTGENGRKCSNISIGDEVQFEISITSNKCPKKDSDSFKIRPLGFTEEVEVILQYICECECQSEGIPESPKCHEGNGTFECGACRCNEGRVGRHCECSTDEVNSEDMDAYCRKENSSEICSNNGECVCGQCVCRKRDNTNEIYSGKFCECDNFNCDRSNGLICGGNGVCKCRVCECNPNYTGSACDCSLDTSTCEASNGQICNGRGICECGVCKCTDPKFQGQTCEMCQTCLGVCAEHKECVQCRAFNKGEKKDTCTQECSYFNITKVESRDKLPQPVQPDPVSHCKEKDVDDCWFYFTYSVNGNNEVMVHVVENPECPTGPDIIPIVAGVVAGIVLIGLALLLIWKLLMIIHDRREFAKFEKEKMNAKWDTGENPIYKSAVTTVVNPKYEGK
Integrin alpha-5/beta-1, sequence (P08648 42-894 limits assumed): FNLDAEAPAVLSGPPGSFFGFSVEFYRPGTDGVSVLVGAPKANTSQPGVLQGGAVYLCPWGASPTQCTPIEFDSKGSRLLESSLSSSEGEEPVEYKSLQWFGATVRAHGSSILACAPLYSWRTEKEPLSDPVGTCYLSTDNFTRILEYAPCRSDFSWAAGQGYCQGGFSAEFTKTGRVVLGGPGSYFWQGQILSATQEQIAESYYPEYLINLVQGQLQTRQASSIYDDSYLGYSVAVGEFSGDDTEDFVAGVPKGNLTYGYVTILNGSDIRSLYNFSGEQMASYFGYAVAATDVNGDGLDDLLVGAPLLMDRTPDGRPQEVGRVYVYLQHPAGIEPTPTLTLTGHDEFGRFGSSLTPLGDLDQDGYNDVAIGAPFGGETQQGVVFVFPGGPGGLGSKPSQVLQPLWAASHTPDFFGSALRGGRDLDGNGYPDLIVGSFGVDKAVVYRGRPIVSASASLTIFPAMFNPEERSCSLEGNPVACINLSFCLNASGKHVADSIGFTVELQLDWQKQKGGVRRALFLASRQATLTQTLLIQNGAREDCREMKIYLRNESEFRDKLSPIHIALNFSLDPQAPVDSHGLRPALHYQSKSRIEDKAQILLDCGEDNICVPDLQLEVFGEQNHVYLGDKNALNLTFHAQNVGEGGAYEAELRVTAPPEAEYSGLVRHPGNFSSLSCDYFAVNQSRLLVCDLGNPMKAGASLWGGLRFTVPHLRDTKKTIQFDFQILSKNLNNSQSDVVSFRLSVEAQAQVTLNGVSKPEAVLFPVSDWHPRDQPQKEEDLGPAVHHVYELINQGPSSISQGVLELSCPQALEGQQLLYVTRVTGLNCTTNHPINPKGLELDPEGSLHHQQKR
Integrin alpha-5/beta-1, sequence (P08648 895-1049 limits assumed): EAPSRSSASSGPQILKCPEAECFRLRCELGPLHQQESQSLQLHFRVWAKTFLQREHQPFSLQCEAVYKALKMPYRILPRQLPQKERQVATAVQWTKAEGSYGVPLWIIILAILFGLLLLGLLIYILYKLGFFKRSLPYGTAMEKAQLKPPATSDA

Row | IC50 (Integrin alpha-4/beta-1 [1]) | IC50 (Integrin alpha-4/beta-1 [2]) | half-life [3] | Structure (SMILES) | also measured
1 | 0.003 µM | 0.06 µM |  | CC(=O)N1CSC[C@@H]1C(=O)N[C@@H](Cc1ccc(OCc2c(F)cccc2F)cc1)C(=O)O | 
2 | 0.012 µM | 0.14 µM | 2.3 h | CC(=O)N1CSC[C@@H]1C(=O)N[C@@H](Cc1ccc(OC(=O)C23CC4CC(CC(C4)C2)C3)cc1)C(=O)O | 
3 | 0.006 µM | 0.024 µM | > 12 h | CC(=O)N1CSC[C@@H]1C(=O)N[C@@H](Cc1ccc(OC(=O)c2c(Cl)cccc2Cl)cc1)C(=O)O | 
4 | 0.015 µM | 0.17 µM |  | CC(=O)N1CSC[C@@H]1C(=O)N[C@@H](Cc1ccc(OCc2ccccc2C(F)(F)F)cc1)C(=O)O | 
5 | 0.005 µM | 0.034 µM | > 12 h | CC(=O)N1CSC[C@@H]1C(=O)N[C@@H](Cc1ccc(OCc2c(Cl)cccc2Cl)cc1)C(=O)O | IC50 [4]: > 200 µM; IC50 (Integrin alpha-M/beta-2): > 400 µM; IC50 (Integrin alpha-V/beta-3): > 800 µM; IC50 (Integrin alpha-4/beta-7): 0.19 µM; IC50 (Integrin alpha-5/beta-1): > 800 µM; IC50 [5]: > 400 µM
6 | 0.017 µM | 0.15 µM |  | CC(=O)N1CSC[C@@H]1C(=O)N[C@@H](Cc1ccc(OCc2cc(Cl)cc(Cl)c2)cc1)C(=O)O | 

Continued, compound first:

Row | Structure (SMILES) | IC50 (Integrin alpha-4/beta-1 [1]) | IC50 (Integrin alpha-4/beta-1 [2]) | half-life [3] | also measured
7 | COc1cccc(OC)c1COc1ccc(C[C@H](NC(=O)[C@H]2CSCN2C(C)=O)C(=O)O)cc1 | 0.002 µM | 0.04 µM |  | 
8 | CC(=O)N1CSC[C@H]1C(=O)N[C@@H](CSCCCNC(=O)C12CC3CC(CC(C3)C1)C2)C(=O)O | 0.09 µM | 8.04 µM |  | 
9 | CC(=O)N1CSC[C@@H]1C(=O)N[C@@H](Cc1ccc(OC(=O)c2ccccc2)cc1)C(=O)O | 0.004 µM | 0.17 µM | 1.6 h | 
10 | CC(=O)N1CSC[C@@H]1C(=O)N[C@@H](Cc1ccc(OCc2c(Cl)cc(Cl)cc2Cl)cc1)C(=O)O | 0.009 µM | 0.035 µM |  | 
11 | CC(=O)N1CSC[C@@H]1C(=O)N[C@@H](Cc1ccc(OCc2ccccc2)cc1)C(=O)O | 0.025 µM | 1.48 µM | > 12 h | 
12 | CC(=O)N1CSC[C@H]1C(=O)N[C@@H](Cc1ccc(OCc2ccccc2)cc1)C(=O)O | 0.22 µM | 19.5 µM |  | 
13 | CC(=O)N1CSC[C@H]1C(=O)N[C@@H](Cc1ccccc1)C(=O)O (Ac-[Thz]-Phe-OH) | 0.36 µM | 35.2 µM |  | 
14 | COc1ccc(C[C@H](NC(=O)[C@@H]2CSCN2C(C)=O)C(=O)O)cc1 (Ac-[Thz]-Tyr(Me)-OH) | 0.31 µM | 76.6 µM |  | 
15 | CC(=O)N1CSC[C@H]1C(=O)N[C@@H](Cc1ccc(O)cc1)C(=O)O (Ac-[Thz]-Tyr-OH) | 2.74 µM | 263 µM |  | 
